Reference: article PMC10907374, “G2019S selective LRRK2 kinase inhibitor abrogates mitochondrial DNA damage” (NPJ Parkinson's Disease, 2024)
“Also recorded” adds a separate entry of the source.

Legend:
[1] = tested on: heterozygous G2019S LRRK2 PD patient-derived LCLs; experiment: Mito DNADX mtDNA damage and mtDNA copy number in G2019S LRRK2 PD patient-derived LCLs; format: cell-based, human; details: 10 and 100 nM, 2 h
Procedure: (§1) PD patient G2019S LRRK2 (n = 2) and healthy subject control (n = 2)-derived LCLs were obtained from the NINDS Coriell biorepository (ID numbers are ND00011, ND00264, ND01618, ND02559). There was not a statistical difference in the ages between the PD patient and healthy control subjects (p = 0.92). LCLs were cultured at 37 °C, 5% CO2, in RPMI-1640 (Sigma-Aldrich, R8758), 15% heat-inactivated fetal bovine serum (VWR Seradigm, 97068-091) and 0.5% Penicillin/Streptomycin (Corning, 30-002-CI). […] All in vitro experiments were repeated at least three times from distinct samples.
(§2) The tool compound EB-42168 was discovered as part of a small molecule discovery program aimed at identifying LRRK2 kinase inhibitors that are selective for the pathogenic G2019S LRRK2 variant. […] MLi‐2 inhibits WT LRRK2 ~1000‐fold more than EB‐42168[20].
(§3) Cells were collected and the nuclei and mitochondria were isolated as previously described. DNA was extracted from LRRK2-WT and G2019S-LRRK2 cells, and wild-type and LRRK2^G2019S/G2019S KI cells using QuickGene DNA Whole Blood Kit L (Autogen, fk-dbl). PD patient LRRK2 G2019S and healthy subject control-derived LCL DNA was extracted using the QuickGene DNA Tissue Kit L (Autogen, fk-dtl), utilizing a semi-automated system (Autogen, QuickGene-610L). For the Autogen system, the pellet was resuspended in 2 ml of 1X PBS, and the standard manufacturer’s protocol was conducted as if the cell suspension was whole blood. DNA was eluted with EDTA-free buffer, and quality was assessed using a Spectradrop microvolume microplate (Molecular Devices). Double-stranded DNA was quantified using Quant-iT Picogreen dsDNA assay (Thermo Fisher) as previously described.
(§4) DNA damage in the mitochondrial genome was measured utilizing Mito DNADX, an assay that we recently developed and described, currently the most robust way of measuring damage in mtDNA[39],[82]. The Mito DNADX assay combines optimized polymerase chain reaction (PCR) parameters using a high-fidelity DNA polymerase and a fluorescent dye that binds to double-stranded DNA that permits the real-time quantification of DNA damage in distinct loci in a 96-well platform. The premise of the Mito DNADX assay involves amplification of a specific mitochondrial PCR fragment in which less PCR product will be amplified when mtDNA damage or lesions block the ability of the DNA polymerase to replicate. As such, mtDNA damage or mtDNA repair intermediates that slow down or impair DNA polymerase progression will be detected. […] Briefly, 15 ng of DNA was used to amplify long or short amplicons of the mitochondrial genome (as determined by primer sets). […] Average lesion frequency is calculated as described. […] Each biological DNA sample was analyzed in technical triplicate. […]

[2] = biological target: T1, G2019S variant of human LRRK2 (G2019S-LRRK2) (Homo sapiens, UniProt Q5S007, G2019S); experiment: LRRK2 pSer935 quantitative western immunoblot in HEK293 cells stably overexpressing G2019S-LRRK2; format: cell-based
T1 construct: WT-LRRK2 or G2019S-LRRK2 overexpressing cells show expression of LRRK2 pSer1292 and full-length LRRK2; expressed in transfected cells
Procedure: (§5) Cells were plated at a density of 0.3 × 10^6 cells in a 6-well dish and treated at ~40–50% confluency. At the time of harvest, cells were collected and either protein collected or DNA extracted as described below.
For LRRK2-WT or G2019S-LRRK2, ~1.5 million cells were pelleted and resuspended in 75 μl of lysis buffer [(RIPA Buffer (Sigma-Aldrich, R0278-50ML), protease inhibitor cocktail (Sigma-Aldrich, P8340), and Halt phosphatase inhibitor cocktail (Thermo Fisher, 78420)]. For LCLs, five million cells were pelleted and resuspended in 100 µl of lysis buffer. For both types of cells lysates were centrifuged at 10,000 × g after a 10 min incubation on ice, and the supernatant was collected. Protein was quantified using the DC protein assay (Bio-Rad, 5000112). In total, 50 μg of protein was loaded for HEK293 LRRK2-WT or G2019S-LRRK2 cells. Due to the differing endogenous LRRK2 levels, 40 µg of ND02559, 60 µg of ND00264, or 100 µg of ND00011 and ND01618 of protein sample was loaded. Protein samples were incubated at 100 °C for 5 min with NuPAGE Sample loading dye (Thermo Fisher, NP0007) and dithiothreitol as reducing agent. After 4–20% SDS-PAGE, the blots were blocked in 5% w/v nonfat dry milk in 1X PBST (0.05% Tween 20). For our investigations, the following primary antibodies were used: mouse anti-LRRK2 N241a (Antibodies INC, 75-253, 1:5000 for HEK293 cells and 1:2000 for LCLs), rabbit anti-LRRK2 pS935 (Abcam, ab133450, 1:10,000 for HEK293 cells and 1:2000 for LCLs), mouse anti-β-actin (Novus, 8H10D10, 1:10,000), and rabbit anti-LRRK2 pS1292 (Abcam, ab203181, 1:500). The blots were then probed with fluorescent-labeled secondary antibodies, IRDye donkey anti-mouse and anti-rabbit at 1:10,000 (LI-COR, 926-32212, 926-68072), and scanned using an Odyssey Imaging scanner (LI-COR). Fluorescence intensities were quantified using ImageStudio Lite software (LI-COR), and the signal from the protein of interest was normalized to the fluorescence intensity of either LRRK2 or β-actin. […]

[3] = tested on: healthy control LCLs; experiment: Mito DNADX mtDNA damage and mtDNA copy number in healthy control-derived LCLs; format: cell-based, human; details: 10 and 100 nM, 2 h
Procedure: as §1, §2, §3, §4

[4] = tested on: WT-LRRK2 expressing HEK293 cells; experiment: Mito DNADX mtDNA damage and mtDNA copy number in WT-LRRK2 overexpressing HEK293 cells; format: cell-based, human; details: 10 nM-1 μM, 2 h
Procedure: as §5, §2, §3
DNA damage in the mitochondrial genome was measured utilizing Mito DNADX, an assay that we recently developed and described, currently the most robust way of measuring damage in mtDNA[39],[82]. The Mito DNADX assay combines optimized polymerase chain reaction (PCR) parameters using a high-fidelity DNA polymerase and a fluorescent dye that binds to double-stranded DNA that permits the real-time quantification of DNA damage in distinct loci in a 96-well platform. The premise of the Mito DNADX assay involves amplification of a specific mitochondrial PCR fragment in which less PCR product will be amplified when mtDNA damage or lesions block the ability of the DNA polymerase to replicate. As such, mtDNA damage or mtDNA repair intermediates that slow down or impair DNA polymerase progression will be detected. Therefore, equal amounts of sample DNA amplified under identical conditions can be directly compared across conditions to determine the mtDNA lesion frequency. Mitochondrial DNA lesion frequency was performed as previously described. Briefly, 15 ng of DNA was used to amplify long or short amplicons of the mitochondrial genome (as determined by primer sets). The amount of amplification is directly proportional to the number of undamaged DNA templates. Average lesion frequency is calculated as described. […] Each biological DNA sample was analyzed in technical triplicate. […]

[5] = tested on: R1441C LRRK2 cultures; set-up: method as in PMID 37384414; details: R1441C LRRK2 cultures ref 71; cited from earlier work

T1 sequence (Q5S007 whole entry G2019S): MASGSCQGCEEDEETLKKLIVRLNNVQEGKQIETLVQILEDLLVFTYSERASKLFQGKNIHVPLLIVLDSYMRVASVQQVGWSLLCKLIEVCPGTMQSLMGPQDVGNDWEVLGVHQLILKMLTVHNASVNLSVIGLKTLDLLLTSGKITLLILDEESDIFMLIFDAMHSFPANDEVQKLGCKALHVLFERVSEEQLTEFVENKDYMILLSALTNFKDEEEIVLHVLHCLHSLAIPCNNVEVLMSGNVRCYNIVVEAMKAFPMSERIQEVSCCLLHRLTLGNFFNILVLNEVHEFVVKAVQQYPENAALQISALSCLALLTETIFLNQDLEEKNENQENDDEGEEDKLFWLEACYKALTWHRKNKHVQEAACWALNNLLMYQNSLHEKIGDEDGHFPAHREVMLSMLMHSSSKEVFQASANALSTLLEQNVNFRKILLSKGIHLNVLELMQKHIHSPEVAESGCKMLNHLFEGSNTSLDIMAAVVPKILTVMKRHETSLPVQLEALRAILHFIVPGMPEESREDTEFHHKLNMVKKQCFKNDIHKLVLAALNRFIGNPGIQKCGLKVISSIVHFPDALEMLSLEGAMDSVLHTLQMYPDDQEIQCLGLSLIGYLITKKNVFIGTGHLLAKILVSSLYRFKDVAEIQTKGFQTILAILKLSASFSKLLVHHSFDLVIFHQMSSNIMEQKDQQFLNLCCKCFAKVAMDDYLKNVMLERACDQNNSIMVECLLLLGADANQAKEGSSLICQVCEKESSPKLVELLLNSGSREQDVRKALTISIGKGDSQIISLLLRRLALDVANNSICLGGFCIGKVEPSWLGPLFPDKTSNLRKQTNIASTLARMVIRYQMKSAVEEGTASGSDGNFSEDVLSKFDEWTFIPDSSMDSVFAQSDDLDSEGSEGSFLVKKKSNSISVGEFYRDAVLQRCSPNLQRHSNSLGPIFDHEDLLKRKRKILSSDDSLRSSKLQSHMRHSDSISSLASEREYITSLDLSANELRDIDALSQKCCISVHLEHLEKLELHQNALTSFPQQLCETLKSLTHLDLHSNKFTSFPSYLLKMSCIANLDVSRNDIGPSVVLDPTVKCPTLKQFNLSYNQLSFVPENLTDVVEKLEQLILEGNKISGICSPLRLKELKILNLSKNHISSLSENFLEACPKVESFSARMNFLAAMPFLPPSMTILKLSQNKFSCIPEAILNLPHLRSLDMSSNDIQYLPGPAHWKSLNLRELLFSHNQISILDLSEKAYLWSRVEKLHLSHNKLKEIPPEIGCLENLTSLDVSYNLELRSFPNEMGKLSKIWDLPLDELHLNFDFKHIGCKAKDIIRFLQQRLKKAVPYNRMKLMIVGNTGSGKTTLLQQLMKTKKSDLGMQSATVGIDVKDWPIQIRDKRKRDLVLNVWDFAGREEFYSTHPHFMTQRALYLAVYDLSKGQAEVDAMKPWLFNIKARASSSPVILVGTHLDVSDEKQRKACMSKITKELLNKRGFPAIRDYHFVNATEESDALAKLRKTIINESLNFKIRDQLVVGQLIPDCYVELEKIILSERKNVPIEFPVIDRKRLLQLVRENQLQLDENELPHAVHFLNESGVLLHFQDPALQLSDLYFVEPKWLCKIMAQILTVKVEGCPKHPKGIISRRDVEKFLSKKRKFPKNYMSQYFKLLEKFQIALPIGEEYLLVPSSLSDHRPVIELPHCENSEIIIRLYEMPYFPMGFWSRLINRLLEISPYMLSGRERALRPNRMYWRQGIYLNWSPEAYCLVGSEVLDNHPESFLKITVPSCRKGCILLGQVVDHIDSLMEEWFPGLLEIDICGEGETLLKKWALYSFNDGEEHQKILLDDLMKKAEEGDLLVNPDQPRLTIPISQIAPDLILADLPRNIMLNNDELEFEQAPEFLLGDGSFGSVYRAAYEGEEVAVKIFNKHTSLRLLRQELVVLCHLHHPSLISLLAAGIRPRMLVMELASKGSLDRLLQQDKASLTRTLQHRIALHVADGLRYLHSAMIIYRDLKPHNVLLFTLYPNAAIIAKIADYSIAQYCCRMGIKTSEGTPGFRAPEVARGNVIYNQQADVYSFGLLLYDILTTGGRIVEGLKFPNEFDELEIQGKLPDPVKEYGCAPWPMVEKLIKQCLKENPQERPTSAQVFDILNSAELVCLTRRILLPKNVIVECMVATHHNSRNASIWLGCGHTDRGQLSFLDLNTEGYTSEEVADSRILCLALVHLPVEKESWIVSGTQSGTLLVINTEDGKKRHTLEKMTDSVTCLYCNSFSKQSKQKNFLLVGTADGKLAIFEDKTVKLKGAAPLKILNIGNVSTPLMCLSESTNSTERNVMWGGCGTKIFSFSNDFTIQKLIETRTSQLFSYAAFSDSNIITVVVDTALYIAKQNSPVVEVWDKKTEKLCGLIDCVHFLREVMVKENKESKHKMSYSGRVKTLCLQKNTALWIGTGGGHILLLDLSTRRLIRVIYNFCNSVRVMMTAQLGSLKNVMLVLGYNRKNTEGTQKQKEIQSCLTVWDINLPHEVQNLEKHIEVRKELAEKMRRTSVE

Row | IC50 ([2]; G2019S LRRK2 HEK293 cell line, 2 h treatment, 10 nM-1 μM titration, read-out: calculated half-maximal inhibition (IC50) of LRRK2 pSer935) [nM] | decrease in LRRK2 pSer935 levels ([2]; G2019S-LRRK2 cells, 10 nM, 2 h) | fold more potent on G2019S LRRK2 than WT LRRK2 (pS935 IC50) ([2]; HEK293 overexpressing cells) [fold] | SMILES | mtDNA copy number [1] | mtDNA damage [1] | mtDNA copy number [3] | mtDNA damage [3] | mtDNA copy number [4] | mtDNA damage [4] | impaired mitophagy and other mitochondrial parameters [5]
1 | 54 | no significant dephosphorylation | > 90 | CC1=C(C(=O)Nc2ccc3[nH]nc(-c4ccnc(N5CCOCC5)c4)c3c2)C(C)(C)n2nnnc2N1C [EB-42168] | No differences | restored to control levels | No differences | without an effect | not different; also recorded: did not change | No effect | –
2 | – | – | – | C[C@@H]1CN(c2cc(-c3n[nH]c4ccc(OC5(C)CC5)cc34)ncn2)C[C@H](C)O1 [MLi-2, reference compound] | No differences | reversed mtDNA damage | No differences | no effect | no effect; also recorded: unaltered | trend toward an increase in mtDNA damage | not corrected
